In paper PMC9332802, “Structure–Activity Relationship of New Chimeric Analogs of Mastoparan from the Wasp Venom Paravespula lewisii” (International Journal of Molecular Sciences, 2022):
Values after ≈ are worked out from the molar mass of the structure shown. Values joined by “and” are separate entries in the source; they are usually repeats but may differ in a detail not shown here. Identical values can stand only once. Ends that are not written are not given here.

Columns and labels:
[1] = system: Escherichia coli NCTC 8196; experiment: microbe, parasite or virus in culture; format: cell-based; conditions: broth microdilution (CLSI), Mueller–Hinton broth, 37 °C, peptide 0.125 to […], no visible growth, triplicate
Procedure: (§1) Antimicrobial activity of peptides was examined against three reference strains: Staphylococcus aureus NCTC 4163, Escherichia coli NCTC 8196 and Pseudomonas aeruginosae NCTC 6749 dedicated for the determination of antibacterial activity. The bacterial strains were stored in glycerol stock (Sigma-Aldrich, St. Louis, MO, USA) at −80 °C. Before testing, the strains were cultured aerobically in Tryptic Soy Agar (BD DIFCO, Franklin Lakes, NJ, USA) at 37 °C for 20 h. The susceptibility of microorganisms to the peptides was determined by the broth microdilution assay according to the procedures outlined by CLSI [49]. […] In order to prepare the bacterial suspension, an overnight culture of bacteria in Tryptic Soy Broth (BD DIFCO, Franklin Lakes, NJ, USA) was diluted in sterile saline to a final concentration of approximately 10^7 CFU/mL of bacteria. Aliquots (5 µL) of bacterial suspension were added to each peptide solution. The sterility control (containing the tested peptide in broth) and the growth control (containing the reference strain in broth without the tested peptide) were also set up. The plates were incubated at 37 °C under aerobic conditions. The results are expressed as the minimal inhibitory concentration (MIC) of the compounds in question. The MIC was defined as the lowest concentration at which no visible growth of bacteria (no turbidity) was observed. The assay was performed in triplicate.

[2] = system: Staphylococcus aureus NCTC 4163; experiment: microbe, parasite or virus in culture; format: cell-based; conditions: broth microdilution (CLSI), Mueller–Hinton broth, 37 °C, peptide 0.125 to […], no visible growth, triplicate
Procedure: as §1

[3] = system: Pseudomonas aeruginosae NCTC 6749; experiment: microbe, parasite or virus in culture; format: cell-based; conditions: broth microdilution (CLSI), Mueller–Hinton broth, 37 °C, peptide 0.125 to […], no visible growth, triplicate
Procedure: as §1

[4] = Circular dichroism spectroscopy, relative α-helix fraction; format: physicochemical; conditions: CD, peptide 0.15 mg/mL, 25 °C, three scans averaged; for Relative α-helix fraction (fH), 0.1 M Tris + 50 mM SDS: 0.1 M Tris buffer pH 7.01 + 50 mM SDS, from mean residue ellipticity at 222 nm; for Relative α-helix fraction (fH), 50% TFE / Relative α-helix fraction (fH), water: from mean residue ellipticity at 222 nm (Rohl and Baldwin)
Procedure: Circular dichroism spectroscopy was applied to evaluate the conformational changes of peptides induced by membrane-mimetic environments. The secondary structures of MP and some of its MP analogs (Table 4) were determined in water, 50% 2,2,2-trifluoroethanol (TFE) and 0.1 M Tris buffer with the addition of 50 mM SDS. The relative α-helix fraction (fH) values presented in Table 4, calculated from the values of mean residue ellipticity at 222 nm, reflect the ability of peptides to adopt helical structure in the tested environments.
Circular dichroism (CD) spectra of peptides were recorded on a Jasco J-815 spectropolarimeter (Jasco Int. Co., Ltd., Tokyo, Japan). The CD spectra were acquired for peptides in a concentration of 0.15 mg/mL in water, 50% 2,2,2-trifluoroethanol (TFE) or 0.1 M tris(hydroxymethyl)aminomethane (Tris) buffer (pH 7.01) with the addition of 50 mM SDS (sodium dodecylsulphate) in 0.1 cm path length cuvettes. Measurements were taken at 25 °C in a spectral range of 193–260 nm with a bandwidth of 1 nm and response of 1 s. The spectra were averaged after three scans. Ellipticity was measured in mdeg units and converted to mean residue ellipticity (Θ). The relative helix content (fH) was calculated from the mean residue ellipticity values at 222 nm using the method proposed by Rohl and Baldwin [50] and described previously. Helical wheel projections (Figure 3) were made with HeliQuest https://heliquest.ipmc.cnrs.fr/ (accessed on 1 June 2022).

[5] = system: HT29 cells; experiment: MTT cytotoxicity assay; format: cell-based, human; conditions: for Effect on cell viability up to 10 µM: 24 h, peptide up to 10 µM; for LD50 (peptide concentration sufficient to kill 50% of the peptide-treated cells): 24 h incubation, 0.05–50 µM, from regression curves of cell viability, triplicate
Procedure: (§2) The cytotoxicity of the selected MP analogs, MP-RIP and RIP-MP, was determined against two human cell lines. The viability of HT29 and HCT116 cells incubated with various concentrations of MP-RIP and RIP-MP was assessed by the MTT assay (Figure 4). […] Moreover, based on the regression curves of cell viability, lethal doses of MP analogs sufficient to kill 50% of the peptide-treated cells (LD50) were calculated. […] The viability of the HT29 cells indicates relatively low cytotoxicity of both analogs at a concentration corresponding to the MIC value against S. aureus. In the case of HCT116 cells, the above relationships were less evident.
(§3) Human cell lines HT29 (ATCC cat. # HTB-38) and HCT116 (ATCC cat. # CCL-247) were cultured in McCoy (HT29) or Dulbecco’s Modified Eagle’s (DMEM) medium (HCT116), supplemented with 10% fetal bovine serum (FBS), penicillin (100 U/mL) and streptomycin (100 µg/mL). Cultures were conducted at 37 °C in humidified atmosphere of 5% CO2. Cells were cultured for 24 h before initiation of the experiments. The cell viability was determined by the 3-(4, 5-dimethylthazol-2-yl)-2, 5-diphenyl tetrazolium bromide (MTT) assay. Briefly, HT29 or HCT116 cells were seeded in 96-well plates to a density of 10^5 cells/well in 0.2 mL of above-specified culture media. After 24 h, the following concentrations of peptides were added to wells: 0.05, 0.1, 0.5, 1, 5, 10, 25, 50 µM. As a negative control, cells were treated with 0.9% NaCl. After 24 h of incubation (5% CO2, 37 °C), 15 µL MTT solution was added into each well to reach the final concentration of […]. After further incubation for 2 h (5% CO2, 37 °C) the cells were centrifuged for 3 min at 4 °C and the medium was removed. Formazan crystals present in mitochondria of metabolically active cells were dissolved with 100 μL of dimethylsulfoxide (DMSO), and the dye concentration was determined at 570 nm wavelength. Cell viability was expressed as a percentage (mean value ± SEM) of those cells treated with 0.9% NaCl as negative control. Lethal doses, which correspond to peptide concentrations sufficient to kill 50% of the peptide-treated cells (LD50), were determined with GraphPad Prism 7.0 software (GraphPad Software Inc., La Jolla, CA, USA). The assay was performed in triplicate.

[6] = system: HCT116 cells; experiment: MTT cytotoxicity assay; format: cell-based, human; conditions: for Effect on cell viability up to 10 µM: 24 h, peptide up to 10 µM; for LD50 (peptide concentration sufficient to kill 50% of the peptide-treated cells): 24 h incubation, 0.05–50 µM, from regression curves of cell viability, triplicate
Procedure: as §2, §3

[7] = cited from earlier work
Description: However, comparing their cytotoxic properties with other MP analogs known from the previous literature reports appears to be difficult due to the different cell lines used in cytotoxicity assays.

CC[C@H](C)[C@H](NC(=O)[C@H](CCCCN)NC(=O)CNC(=O)[C@H](CC(C)C)NC(=O)[C@H](CC(C)C)NC(=O)[C@H](Cc1ccc(O)cc1)NC(=O)CNC(=O)[C@H](C)N)C(=O)N[C@@H](CC(N)=O)C(=O)N[C@@H](CC(C)C)C(=O)N[C@@H](CCCCN)C(=O)N[C@@H](C)C(=O)N[C@@H](CC(C)C)C(=O)N[C@@H](C)C(=O)N[C@@H](C)C(=O)N[C@@H](CC(C)C)C(=O)N[C@@H](C)C(=O)N[C@@H](CCCCN)C(=O)N[C@@H](CCCCN)C(=O)N[C@H](C(=O)N[C@@H](CC(C)C)C(=O)N[C@@H](Cc1ccc(O)cc1)C(=O)N[C@@H](CCCCN)C(=O)N1CCC[C@H]1C(=O)N[C@H](C(=O)N[C@H](C(=O)N[C@@H](CC(N)=O)C(=O)N[C@@H](Cc1ccccc1)C(N)=O)[C@@H](C)O)[C@@H](C)CC)[C@@H](C)CC [TP10-[Lys^2, Ile^4] RIP]
MIC E. coli [1]: >256 µg/mL
MIC S. aureus [2]: 128 µg/mL (≈ 42 µM)
MIC P. aeruginosae [3]: >256 µg/mL
Relative α-helix fraction (fH), 0.1 M Tris + 50 mM SDS [4]: 0.31
Relative α-helix fraction (fH), 50% TFE [4]: 0.29
Relative α-helix fraction (fH), water [4]: 0.08

CC[C@H](C)[C@H](NC(=O)[C@H](CCCCN)NC(=O)[C@H](CCCCN)NC(=O)[C@H](C)NC(=O)[C@H](CC(C)C)NC(=O)[C@H](C)NC(=O)[C@H](C)NC(=O)[C@H](CC(C)C)NC(=O)[C@H](C)NC(=O)[C@H](CCCCN)NC(=O)[C@H](CC(C)C)NC(=O)[C@H](CC(N)=O)NC(=O)[C@@H](NC(=O)[C@H](CCCCNC(=O)Cn1c(-c2ccccn2)nc2ccccc21)NC(=O)CNC(=O)[C@H](CC(C)C)NC(=O)[C@H](CC(C)C)NC(=O)[C@H](Cc1ccc(O)cc1)NC(=O)CNC(=O)[C@H](C)N)[C@@H](C)CC)C(=O)N[C@@H](CC(C)C)C(N)=O [[Lys^7 (PBnzAc)] TP10]
MIC E. coli [1]: >256 µg/mL
MIC S. aureus [2]: >256 µg/mL
MIC P. aeruginosae [3]: >256 µg/mL
Relative α-helix fraction (fH), 0.1 M Tris + 50 mM SDS [4]: 0.32
Relative α-helix fraction (fH), 50% TFE [4]: 0.51
Relative α-helix fraction (fH), water [4]: 0.14–0.19 and 0.15

INLKALAALAKKILLIKKALAALAKLNI-NH2 [MP-retroMP]
MIC E. coli [1]: >256 µg/mL
MIC S. aureus [2]: >256 µg/mL
MIC P. aeruginosae [3]: >256 µg/mL
Relative α-helix fraction (fH), 0.1 M Tris + 50 mM SDS [4]: 0.17
Relative α-helix fraction (fH), 50% TFE [4]: 0.23–0.24 and 0.24
Relative α-helix fraction (fH), water [4]: 0.04

INLKALAALAKKILYSPWTNF-NH2 [MP-RIP]
Effect on cell viability up to 10 µM [5]: did not substantially affect the viability
LD50 (peptide concentration sufficient to kill 50% of the peptide-treated cells) [5]: 38.0 µM
Effect on cell viability up to 10 µM [6]: did not substantially affect the viability
LD50 (peptide concentration sufficient to kill 50% of the peptide-treated cells) [6]: 13.2 µM
MIC P. aeruginosae [3]: >256 µg/mL

LIKKALAALAKLNI-NH2 [retroMP, reference compound]
Fold lower cytotoxicity than MP [7]: 3.5 fold
MIC E. coli [1]: 256 µg/mL
MIC S. aureus [2]: >256 µg/mL
MIC P. aeruginosae [3]: 256 µg/mL
Relative α-helix fraction (fH), 0.1 M Tris + 50 mM SDS [4]: 0.16
Relative α-helix fraction (fH), water [4]: 0.19

YSPWTNFINLKALAALAKKIL-NH2 [RIP-MP]
Effect on cell viability up to 10 µM [5]: did not substantially affect the viability
LD50 (peptide concentration sufficient to kill 50% of the peptide-treated cells) [5]: 30.2 µM
Effect on cell viability up to 10 µM [6]: did not substantially affect the viability
LD50 (peptide concentration sufficient to kill 50% of the peptide-treated cells) [6]: 17.0 µM
MIC P. aeruginosae [3]: >256 µg/mL
